Measured values from patent publication US5525626A (priority 1989, dated 1996).

What was measured:
malignant cell growth = details: cited from earlier work
[1] = test system: U 178 MG, TP 410 N, TP 242 MG, TP 336 MG and A 431 cells; test: growth curves of five tumor cell lines, comparison with coumarin; type: cell-based, human; details: corresponding concentrations, up to 12 days
Protocol: (§1) The neuroblastoma cell line and the three glioblastoma cell lines were cultivated in Ham's F10 medium enriched with 10% fetal calf serum (FCS) and the usual quantity of penicillin, streptomycin (Pen/Strep) and glutamine. The epidermoidal cell line was cultivated in modified Eagle's Medium (MEM), likewise enriched with 10% (FCS) and the usual quantity of glutamine and Pen/Strep.
In each case 5×10^4 cells were plated out in T25 bottles, the untreated cells being incubated in analogous conditions as control. The cell count was microscopically determined after 3, 5, 7, 10 and 12 days.

[2] = test system: U 178 MG, TP 410 N, TP 242 MG, TP 336 MG and A 431 cells; details: coumarin in the corresponding concentrations
Protocol: as §1
Untreated cells served as a control. Subsequently, the cells were incubated for 8 hours with ^3 H-thymidine. The radioactivity absorbed by the cells was measured in the usual way.

T4 lymphocytes = details: low concentrations; cited from earlier work
LNCap cells = test: cell growth in combination with testosterone; type: cell-based, human; details: FIG. 9

O=c1ccc2ccccc2o1 [coumarin, 1,2-Benzopyrone, reference compound]
malignant cell growth (malignant cell growth; cell cultures and animal experiments): inhibits malignant cell growth in cell cultures and in animal experiments
side-effects in mammals (malignant cell growth; compared with biological activity): side-effects in the case of mammals are to be disregarded compared with biological activity
growth-inhibiting activity (growth curve) versus control [1]: no significant difference could be observed
difference from control in pre-trial [2]: no significant difference could be observed

O=P1(N(CCCl)CCCl)NCCCO1 (stereo not drawn) [cyclophosphamide]
biological activity of T4 lymphocytes (T4 lymphocytes): inhibits the biological activity of T4 lymphocytes

O=c1oc2ccccc2cc1O [3-OH-1,2-BP, reference compound]
effect on cell growth, comparison compound (LNCap cells): essentially ineffective
